Measured values as given in PubChem BioAssay (NCI).
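Tested at 5 concentrations; 48 h exposure; 96-well plates; endpoints linearly interpolated, else capped at highest concentration. The concentration for full growth arrest is given as TGI.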

Key:
Assay in all cases: growth of human tumour cells (NCI), 48 h
A549 NSCLC = test system: A549 NSCLC
HL-60(TB) leukemia = test system: HL-60(TB) leukemia
M14 melanoma = test system: M14 melanoma
UACC-62 melanoma = test system: UACC-62 melanoma
EKVX NSCLC = test system: EKVX NSCLC
NCI-H23 lung = test system: NCI-H23 lung
SN12C renal = test system: SN12C renal
CCRF-CEM leukemia = test system: CCRF-CEM leukemia
SF-268 CNS = test system: SF-268 CNS
786-0 renal = test system: 786-0 renal
T-47D breast = test system: T-47D breast
CAKI-1 renal = test system: CAKI-1 renal
SW-620 colon = test system: SW-620 colon
MDA-N = test system: MDA-N
TK-10 renal = test system: TK-10 renal
RXF 393 renal = test system: RXF 393 renal
MOLT-4 leukemia = test system: MOLT-4 leukemia
MDA-MB-231 breast = test system: MDA-MB-231 breast
UACC-257 melanoma = test system: UACC-257 melanoma
MALME-3M melanoma = test system: MALME-3M melanoma
SF-295 CNS = test system: SF-295 CNS
HCT-15 colon = test system: HCT-15 colon
SK-OV-3 ovarian = test system: SK-OV-3 ovarian
SNB-75 CNS = test system: SNB-75 CNS
KM12 colon = test system: KM12 colon
HT29 colon = test system: HT29 colon
PC-3 prostate = test system: PC-3 prostate
SK-MEL-28 melanoma = test system: SK-MEL-28 melanoma
COLO 205 colon = test system: COLO 205 colon
IGROV1 ovarian = test system: IGROV1 ovarian
RPMI-8226 leukemia = test system: RPMI-8226 leukemia
HOP-62 NSCLC = test system: HOP-62 NSCLC
SK-MEL-5 melanoma = test system: SK-MEL-5 melanoma
K-562 leukemia = test system: K-562 leukemia
DU-145 prostate = test system: DU-145 prostate
MCF7 breast = test system: MCF7 breast
HCC-2998 colon = test system: HCC-2998 colon
OVCAR-8 ovarian = test system: OVCAR-8 ovarian
OVCAR-4 ovarian = test system: OVCAR-4 ovarian
SK-MEL-2 melanoma = test system: SK-MEL-2 melanoma
SF-539 CNS = test system: SF-539 CNS
MDA-MB-435 = test system: MDA-MB-435
HS 578T breast = test system: HS 578T breast
U251 CNS = test system: U251 CNS
NCI/ADR-RES ovarian = test system: NCI/ADR-RES ovarian
NCI-H522 lung = test system: NCI-H522 lung
SNB-19 CNS = test system: SNB-19 CNS
BT-549 breast = test system: BT-549 breast
HCT-116 colon = test system: HCT-116 colon
ACHN renal = test system: ACHN renal
OVCAR-5 ovarian = test system: OVCAR-5 ovarian
UO-31 renal = test system: UO-31 renal
OVCAR-3 ovarian = test system: OVCAR-3 ovarian
LOX IMVI melanoma = test system: LOX IMVI melanoma
NCI-H460 lung = test system: NCI-H460 lung
SR leukemia = test system: SR leukemia
A498 renal = test system: A498 renal
NCI-H226 lung = test system: NCI-H226 lung
HOP-92 NSCLC = test system: HOP-92 NSCLC

CC1OC(c2ccc3c(OCc4ccccc4)cccc3c2O)CC(OCc2ccccc2)[C@H]1OCc1ccccc1 (stereo partly specified)
TGI (A549 NSCLC): > 10 µM
TGI (HL-60(TB) leukemia): > 10 µM
TGI (M14 melanoma): > 10 µM
TGI (UACC-62 melanoma): > 10 µM
TGI (EKVX NSCLC): > 10 µM
TGI (NCI-H23 lung): > 10 µM
TGI (SN12C renal): > 10 µM
TGI (CCRF-CEM leukemia): > 10 µM
TGI (SF-268 CNS): > 10 µM
TGI (786-0 renal): > 10 µM
TGI (T-47D breast): > 10 µM
TGI (CAKI-1 renal): > 10 µM
TGI (SW-620 colon): > 10 µM
TGI (MDA-N): > 10 µM
TGI (TK-10 renal): > 10 µM
TGI (RXF 393 renal): > 10 µM
TGI (MOLT-4 leukemia): > 10 µM
TGI (MDA-MB-231 breast): > 10 µM
TGI (UACC-257 melanoma): > 10 µM
TGI (MALME-3M melanoma): > 10 µM
TGI (SF-295 CNS): > 10 µM
TGI (HCT-15 colon): > 10 µM
TGI (SK-OV-3 ovarian): > 10 µM
TGI (SNB-75 CNS): > 10 µM
TGI (KM12 colon): > 10 µM
TGI (HT29 colon): > 10 µM
TGI (PC-3 prostate): > 10 µM
TGI (SK-MEL-28 melanoma): > 10 µM
TGI (COLO 205 colon): > 10 µM
TGI (IGROV1 ovarian): > 10 µM
TGI (RPMI-8226 leukemia): > 10 µM
TGI (HOP-62 NSCLC): > 10 µM
TGI (SK-MEL-5 melanoma): > 10 µM
TGI (K-562 leukemia): > 10 µM
TGI (DU-145 prostate): > 10 µM
TGI (MCF7 breast): > 10 µM
TGI (HCC-2998 colon): > 10 µM
TGI (OVCAR-8 ovarian): > 10 µM

S=c1c2cn[nH]c2nc2scc(-c3ccc(Cl)cc3)n12
TGI (OVCAR-4 ovarian): > 100 µM
TGI (A549 NSCLC): 30.5 µM
TGI (SK-MEL-2 melanoma): 46.6 µM
TGI (M14 melanoma): 36.3 µM
TGI (UACC-62 melanoma): > 100 µM
TGI (EKVX NSCLC): 49.1 µM
TGI (NCI-H23 lung): 30.1 µM
TGI (SN12C renal): 32 µM
TGI (SF-539 CNS): 38.4 µM
TGI (MDA-MB-435): 15.7 µM
TGI (HS 578T breast): 38.8 µM
TGI (U251 CNS): 25.8 µM
TGI (CCRF-CEM leukemia): 50.9 µM
TGI (SF-268 CNS): 42.5 µM
TGI (786-0 renal): 29.4 µM
TGI (NCI/ADR-RES ovarian): 31.2 µM
TGI (NCI-H522 lung): 46.9 µM
TGI (CAKI-1 renal): 24.6 µM
TGI (SNB-19 CNS): 86.2 µM
TGI (BT-549 breast): 27.5 µM
TGI (SW-620 colon): 22.3 µM
TGI (MDA-N): 26.2 µM
TGI (TK-10 renal): 31.8 µM
TGI (RXF 393 renal): 17.5 µM
TGI (MOLT-4 leukemia): 60.1 µM
TGI (MDA-MB-231 breast): > 100 µM
TGI (HCT-116 colon): 27.9 µM
TGI (ACHN renal): 27 µM
TGI (UACC-257 melanoma): > 100 µM
TGI (OVCAR-5 ovarian): 29.4 µM
TGI (MALME-3M melanoma): 49.6 µM
TGI (HCT-15 colon): 26.1 µM
TGI (SK-OV-3 ovarian): > 100 µM
TGI (SNB-75 CNS): 28.2 µM
TGI (KM12 colon): 28.8 µM
TGI (UO-31 renal): 41.8 µM
TGI (HT29 colon): 32.6 µM
TGI (PC-3 prostate): 29.8 µM
TGI (SK-MEL-28 melanoma): 46.6 µM
TGI (COLO 205 colon): 65.3 µM
TGI (RPMI-8226 leukemia): 64.9 µM
TGI (OVCAR-3 ovarian): 47.8 µM
TGI (LOX IMVI melanoma): 23.3 µM
TGI (HOP-62 NSCLC): 40.1 µM
TGI (SK-MEL-5 melanoma): > 100 µM
TGI (K-562 leukemia): > 100 µM
TGI (NCI-H460 lung): 57.5 µM
TGI (SR leukemia): 28.9 µM
TGI (MCF7 breast): 36.3 µM
TGI (HCC-2998 colon): 32.5 µM
TGI (OVCAR-8 ovarian): 41.7 µM

BrC(=C(c1ccc(OC2CCCCO2)cc1)c1ccc(OC2CCCCO2)cc1)c1ccccc1 (stereo unspecified)
TGI (OVCAR-4 ovarian): > 100 µM
TGI (A549 NSCLC): > 100 µM
TGI (HL-60(TB) leukemia): > 100 µM
TGI (M14 melanoma): > 100 µM
TGI (UACC-62 melanoma): > 100 µM
TGI (EKVX NSCLC): > 100 µM
TGI (NCI-H23 lung): > 100 µM
TGI (SN12C renal): > 100 µM
TGI (SF-539 CNS): > 100 µM
TGI (MDA-MB-435): > 100 µM
TGI (HS 578T breast): > 100 µM
TGI (U251 CNS): > 100 µM
TGI (CCRF-CEM leukemia): > 100 µM
TGI (SF-268 CNS): > 100 µM
TGI (786-0 renal): > 100 µM
TGI (NCI/ADR-RES ovarian): > 100 µM
TGI (T-47D breast): > 100 µM
TGI (CAKI-1 renal): > 100 µM
TGI (SNB-19 CNS): > 100 µM
TGI (SW-620 colon): > 100 µM
TGI (MDA-N): > 100 µM
TGI (A498 renal): > 100 µM
TGI (TK-10 renal): > 100 µM
TGI (RXF 393 renal): > 100 µM
TGI (MOLT-4 leukemia): > 100 µM
TGI (MDA-MB-231 breast): > 100 µM
TGI (HCT-116 colon): > 100 µM
TGI (UACC-257 melanoma): > 100 µM
TGI (MALME-3M melanoma): > 100 µM
TGI (SF-295 CNS): > 100 µM
TGI (HCT-15 colon): > 100 µM
TGI (SK-OV-3 ovarian): > 100 µM
TGI (SNB-75 CNS): > 100 µM
TGI (KM12 colon): > 100 µM
TGI (UO-31 renal): > 100 µM
TGI (HT29 colon): > 100 µM
TGI (PC-3 prostate): > 100 µM
TGI (SK-MEL-28 melanoma): > 100 µM
TGI (COLO 205 colon): > 100 µM
TGI (IGROV1 ovarian): > 100 µM
TGI (RPMI-8226 leukemia): > 100 µM
TGI (OVCAR-3 ovarian): > 100 µM
TGI (LOX IMVI melanoma): > 100 µM
TGI (HOP-62 NSCLC): > 100 µM
TGI (NCI-H226 lung): > 100 µM
TGI (K-562 leukemia): > 100 µM
TGI (DU-145 prostate): > 100 µM
TGI (NCI-H460 lung): > 100 µM
TGI (SR leukemia): > 100 µM
TGI (MCF7 breast): > 100 µM
TGI (OVCAR-8 ovarian): > 100 µM
TGI (HOP-92 NSCLC): > 100 µM

Cc1nc(C)c(C(=O)NNC(=O)C[N+](C)(C)C)cc1C(=O)NNC(=O)C[N+](C)(C)C
TGI (OVCAR-4 ovarian): > 100 µM
TGI (A549 NSCLC): > 100 µM
TGI (SK-MEL-2 melanoma): > 100 µM
TGI (HL-60(TB) leukemia): > 100 µM
TGI (M14 melanoma): > 100 µM
TGI (UACC-62 melanoma): > 100 µM
TGI (EKVX NSCLC): > 100 µM
TGI (NCI-H23 lung): > 100 µM
TGI (SN12C renal): > 100 µM
TGI (SF-539 CNS): > 100 µM
TGI (MDA-MB-435): > 100 µM
TGI (U251 CNS): > 100 µM
TGI (SF-268 CNS): > 100 µM
TGI (786-0 renal): > 100 µM
TGI (NCI/ADR-RES ovarian): > 100 µM
TGI (T-47D breast): > 100 µM
TGI (CAKI-1 renal): > 100 µM
TGI (SNB-19 CNS): > 100 µM
TGI (BT-549 breast): > 100 µM
TGI (SW-620 colon): > 100 µM
TGI (MDA-N): > 100 µM
TGI (A498 renal): > 100 µM
TGI (TK-10 renal): > 100 µM
TGI (RXF 393 renal): > 100 µM
TGI (MDA-MB-231 breast): > 100 µM
TGI (HCT-116 colon): > 100 µM
TGI (ACHN renal): > 100 µM
TGI (UACC-257 melanoma): > 100 µM
TGI (OVCAR-5 ovarian): > 100 µM
TGI (SF-295 CNS): > 100 µM
TGI (HCT-15 colon): > 100 µM
TGI (SK-OV-3 ovarian): > 100 µM
TGI (SNB-75 CNS): > 100 µM
TGI (KM12 colon): > 100 µM
TGI (UO-31 renal): > 100 µM
TGI (HT29 colon): > 100 µM
TGI (SK-MEL-28 melanoma): > 100 µM
TGI (COLO 205 colon): > 100 µM
TGI (IGROV1 ovarian): > 100 µM
TGI (OVCAR-3 ovarian): > 100 µM
TGI (LOX IMVI melanoma): > 100 µM
TGI (HOP-62 NSCLC): > 100 µM
TGI (NCI-H226 lung): > 100 µM
TGI (SK-MEL-5 melanoma): > 100 µM
TGI (DU-145 prostate): > 100 µM
TGI (NCI-H460 lung): > 100 µM
TGI (MCF7 breast): > 100 µM
TGI (HCC-2998 colon): > 100 µM
TGI (OVCAR-8 ovarian): > 100 µM
TGI (HOP-92 NSCLC): > 100 µM
